The values below come from patent US11976066B1 (priority 2023, dated 2024).

In brackets after ≈: the same amount, converted by molar mass.

The test concerns multidrug-resistant (MDR) strains of Mycobacterium tuberculosis. As to the kind of experiment: microbe, parasite or virus in culture. It counts as cell-based. The conditions noted are these: 192 h, read-out: MIC MDR-TB, MDR strains, REMA, 8 days incubation at 37° C, Middlebrook 7H9 broth.

As for `CCOC(=O)c1cc(C(=O)c2ccc(F)cc2)n2ccc(N)cc12` [Compound 3a, Ethyl 7-amino-3-(4-fluorobenzoyl)indolizine-1-carboxylate], the MIC turned out to be 32 µg/mL (≈ 98.1 µM).
For the compound `CCOC(=O)c1cc(C(=O)c2ccccc2[N+](=O)[O-])n2ccc(N)cc12` [Compound 3b, Ethyl 7-amino-3-(2-nitrobenzoyl)indolizine-1-carboxylate], the MIC is around 16 µg/mL (≈ 45.3 µM).
In the case of `COC(=O)c1c(C(=O)OC)c2cc(N)ccn2c1C(=O)c1ccc(OC)cc1` [Compound 3d, Dimethyl 7-amino-3-(4-methoxybenzoyl)indolizine-1,2-dicarboxylate], the MIC is around 32 µg/mL (≈ 83.7 µM).
For `CCOC(=O)c1cc(C(=O)c2ccc(Br)cc2)n2ccc(N)cc12` [Compound 3e, Ethyl 7-amino-3-(4-bromobenzoyl)indolizine-1-carboxylate], the MIC is around 64 µg/mL (≈ 165 µM).
